Earlier results as cited in US5668009A, “Methods for treating cotton-containing fabrics with CBH I enriched cellulase” (Genencor International, Inc., priority 1995, dated 1997).
pKi: −log10 of the molar value.

Assays:
[1] = target: β-Glucosidase (BG) components of fungal cellulase; settings: competitive inhibition; general characterisation of BG components; read-out: Ki (glucose), competitive inhibition
[2] = target: exo-cellobiohydrolase (CBH) type components, as characterized for CBH I and CBH II from Trichoderma reesei; settings: competitive inhibition; general characterisation of CBH components; read-out: Ki (cellobiose), competitive inhibition

| SMILES | pKi [1] | pKi [2] |
| --- | --- | --- |
| OC[C@H]1OC(O)[C@H](O)[C@@H](O)[C@@H]1O (some centres unmarked) [glucose] | ~3.00 |  |
| OC[C@H]1O[C@@H](O[C@H]2[C@H](O)[C@@H](O)C(O)O[C@@H]2CO)[C@H](O)[C@@H](O)[C@@H]1O (some centres unmarked) [cellobiose] |  | ~3.00 |
